Measurements from patent US4567162A, “Biologically active heptapeptides” (Farmitalia Carlo Erba, priority 1983, dated 1986).
Where a name gives a salt, the structure may show the parent alone. Ends that are not written are not given here. Peptide text beside a SMILES is read from it.

Tests used:
[1] = system: protein synthesis of liver tissue; assay: In vivo-in vitro test: protein synthesis rate of liver tissue (14C amino acid incorporation in microsomal cell juice); parameters: species or system male rats (Wistar); conditions: 4 weeks; for Δ % control rat group treated: versus treated (physiological sodium chloride s.c.) control group; for Δ % control rat group untreated: versus untreated control group; for Protein synthesis rates compared with the two control groups: male rats, daily s.c.
Experimental: De-protecting reactions are carried out according to methods known per se in polypeptide chemistry. Peptides wherein Y represents OR are prepared, for example, starting from the C-terminal amino acid esterified by the appropriate alcohol. Peptides wherein Y represents OH can be prepared, for example, by hydrolysis of peptides wherein Y represents OR. Peptides wherein Y represents NH2, NHR or NR2 can be prepared by ammonolysis of the corresponding esters or starting from a C-terminal amino acid amidated by an appropriate amine. Hydrazido or substituted hydrazido derivatives according to the invention are prepared by condensation of the N-protected peptide or amino acid with a suitably substituted hydrazine, such as benzylcarbazate, t-butylcarbazate, adamantylcarbazate, phenylhydrazine or adamantylhydrazine, or reacting the N-protected peptide or amino acid hydrazide with a suitable alkylating agent, such as an alkyl chloride, or with a suitable acylating agent such as benzylchloroformate, t-butylchloroformate, di-t-butyldicarbonate or adamantylfluoroformate. […] The compounds according to the invention show an interesting growth promoting activity in animals determined both by the in vivo-in vitro test system on protein synthesis of liver tissue (as described by K. Kammerer and A. Dey-Hazra (1980) Vet. Med. Nachr. Nr. 2, 99-112), and by the dose-dependent increase in weight gain and feed efficiency after subcutaneous or oral administration.
The growth tests were carried out for periods of 4 weeks, using groups of 6 male rats (Wistar, Hagemann, Extertal) divided in subgroups of three animals managed in Markolon cages, good shaving as litter.
Water and feed (Altromin 1321 Standard diet containing 19% crude protein): ad libitum.
The peptides of the present invention were administered in solution s.c. daily at doses of 10, 50 and 100 ng/kg, using as diluent normal saline (starting from a stock solution with 100 ng/ml).
Homogenise 3 g liver in 9 ml TKM buffer-saccharose solution, cooled on ice, in a Potter homogeniser at 600 r.p.m. for 2 min.; centrifuge at 4° C. in an ultracentrifuge with 10,000 g for 20 min., decant the supernatant=microsomal cell juice.
After calculation of protein content in the microsomal cell juice by means of the biuret method, the protein concentration was adjusted with TKM buffer to 1 mg/ml. To that, a further dilution with bidistilled water to 0.25 mg protein per ml of the microsomal cell juice followed.
Subsequently portions of 0.15 l ml reaction medium and 0.05 ml (50 mcg) of pyruvate kinase solution, as well as 0.1 ml of ^14 C amino acid mixture (=1 μCi) were added. The volume of the incubation mixture was then 1 ml each.
After a 35 minute incubation at 37° C. in a water bath, protein precipitation was performed by adding 2 ml of trichloracetic acid (10%). The sediment was washed by several additions of trichloroacetic acid and subsequent centrifugation (3600 g/5 min) until the supernatant was free from radioactivity.
The residue was dissolved in 1.0 ml Lumasolve and left overnight at 37° C., until it was clear.
Measuring the preparation was done in a PRIAS liquid scintillation counter PL (1.0 ml+5 ml scintillation liquid).
A detailed method is described in the above cited Kammerer article.

[2] = Growth test in pigs (body weight, feed consumption, feed efficiency); format: in vivo, castrated male pigs (Hybrids)
Experimental: The growth test was carried out for a period of 3 weeks, using groups of 7 castrated male pigs (Hybrids) divided in subgroups and managed in cages with flat decks. The pigs were fed during the whole experimental period with grower feed (Hoveler, normal type without feed additives), 1 kg per day. Water was given ad libitum. The weights were weekly recorded.

[3] = 50 ng/kg daily injection, 3 weeks
[4] = 50 ng/kg, 3 weeks, versus untreated group 1

Compound | Δ % control rat group treated ([1]; 10 ng/kg daily s.c.) | Δ % control rat group untreated ([1]; 10 ng/kg daily s.c.) | Δ % control rat group treated ([1]; 50 ng/kg daily s.c.) | Δ % control rat group untreated ([1]; 50 ng/kg daily s.c.) | Δ % control rat group treated ([1]; 100 ng/kg daily s.c.) | Δ % control rat group untreated ([1]; 100 ng/kg daily s.c.) | Protein synthesis rates compared with the two control groups [1] | Weight after 1 week ([2]; 50 ng/kg daily injection) [kg] | Weight after 2 weeks ([2]; 50 ng/kg daily injection) [kg] | Weight after 3 weeks ([2]; 50 ng/kg daily injection) [kg] | Weight gain [2, 3] [kg] | Weight gain in % [2, 3] [%] | Initial weight ([2]; 50 ng/kg daily injection, baseline) [kg] | Feed efficiency (kg feed/kg weight gain) ([2]; 50 ng/kg, 3 weeks) | Consumption (feed) ([2]; 50 ng/kg, 3 weeks, feed 1 kg per day) [kg] | Feed efficiency Δ % to control group [2, 4] [%] | Weight gain Δ % to control group [2, 4] | Weight gain (in words) ([2]; daily injection)
COC(=O)[C@H](CCSC)NC(=O)[C@H](Cc1c[nH]c2ccccc12)NC(=O)CNC(=O)[C@H](CC(C)C)NC(=O)[C@@H]1CCCN1C(=O)[C@@H]1CCCN1C(=O)[C@@H](N)C(C)C [Ex. 2 (TK7D), HCl.H-Val-Pro-Pro-Leu-Gly-Trp-Met-OMe] (H-VPPLGWM-OMe) | +29.4% | +11.9% | +38.2% | +19.4% | +63.2% | +41.0% | significantly different from the two control groups |  |  |  |  |  |  |  |  |  |  | 
VPPLGWM [Ex. 1 (TK7), H-Val-Pro-Pro-Leu-Gly-Trp-Met-OH.HCl] | +36.1% | +17.7% | +46.0% | +26.2% | +56.5% | +35.3% | significantly different from the two control groups | 15.2 | 17.8 | 20.7 | 9.0 | 76.9 | 11.7 | 2.33 | 21 | -24.6 | +32.4% | clear increase in weight gain
